Data published in patent US20240269139A1, “COMPOUNDS FOR TARGETED PROTEIN DEGRADATION OF KINASES” (DANA-FARBER CANCER INSTITUTE, INC., priority 2020, published 2024).
Read-outs that look alike come from different tables or passages of the source.

How the values were obtained:
Assay type in all cases: cell-based
[1] = biological target: T1, protein kinases (human kinome) (Homo sapiens, UniProt P53778); conditions: for logFC MAPK12 (P53778): direction of change down; for logFC: MAPK12 (P53778)
T1 sequence (P53778 1-367): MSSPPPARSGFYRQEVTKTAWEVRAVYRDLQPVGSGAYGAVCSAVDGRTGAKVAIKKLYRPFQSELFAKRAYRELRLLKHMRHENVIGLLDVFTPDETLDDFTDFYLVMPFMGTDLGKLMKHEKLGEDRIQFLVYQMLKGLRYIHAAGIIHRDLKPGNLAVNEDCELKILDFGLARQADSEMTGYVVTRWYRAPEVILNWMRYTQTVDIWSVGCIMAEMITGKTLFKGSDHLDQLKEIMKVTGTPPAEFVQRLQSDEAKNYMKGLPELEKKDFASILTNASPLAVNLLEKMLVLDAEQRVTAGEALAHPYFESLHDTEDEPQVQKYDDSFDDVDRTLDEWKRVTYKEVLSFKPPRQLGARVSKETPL

[2] = biological target: protein kinases (human kinome) (Homo sapiens, UniProt P54753)
[3] = biological target: protein kinases (human kinome) (Homo sapiens, UniProt Q6P5Z2)
[4] = biological target: protein kinases (human kinome) (Homo sapiens, UniProt O75460); conditions: experiment wp076
[5] = biological target: protein kinases (human kinome) (Homo sapiens, UniProt Q16877); conditions: PFKFB4 (Q16877); experiment wp080
[6] = biological target: protein kinases (human kinome) (Homo sapiens, UniProt Q96RU7)
[7] = biological target: protein kinases (human kinome) (Homo sapiens, UniProt P50750)
[8] = biological target: T2, protein kinases (human kinome) (Homo sapiens, UniProt Q96S38); conditions: for logFC RPS6KC1 (Q96S38): direction of change down; for logFC: RPS6KC1 (Q96S38)
T2 sequence (Q96S38 1-1066): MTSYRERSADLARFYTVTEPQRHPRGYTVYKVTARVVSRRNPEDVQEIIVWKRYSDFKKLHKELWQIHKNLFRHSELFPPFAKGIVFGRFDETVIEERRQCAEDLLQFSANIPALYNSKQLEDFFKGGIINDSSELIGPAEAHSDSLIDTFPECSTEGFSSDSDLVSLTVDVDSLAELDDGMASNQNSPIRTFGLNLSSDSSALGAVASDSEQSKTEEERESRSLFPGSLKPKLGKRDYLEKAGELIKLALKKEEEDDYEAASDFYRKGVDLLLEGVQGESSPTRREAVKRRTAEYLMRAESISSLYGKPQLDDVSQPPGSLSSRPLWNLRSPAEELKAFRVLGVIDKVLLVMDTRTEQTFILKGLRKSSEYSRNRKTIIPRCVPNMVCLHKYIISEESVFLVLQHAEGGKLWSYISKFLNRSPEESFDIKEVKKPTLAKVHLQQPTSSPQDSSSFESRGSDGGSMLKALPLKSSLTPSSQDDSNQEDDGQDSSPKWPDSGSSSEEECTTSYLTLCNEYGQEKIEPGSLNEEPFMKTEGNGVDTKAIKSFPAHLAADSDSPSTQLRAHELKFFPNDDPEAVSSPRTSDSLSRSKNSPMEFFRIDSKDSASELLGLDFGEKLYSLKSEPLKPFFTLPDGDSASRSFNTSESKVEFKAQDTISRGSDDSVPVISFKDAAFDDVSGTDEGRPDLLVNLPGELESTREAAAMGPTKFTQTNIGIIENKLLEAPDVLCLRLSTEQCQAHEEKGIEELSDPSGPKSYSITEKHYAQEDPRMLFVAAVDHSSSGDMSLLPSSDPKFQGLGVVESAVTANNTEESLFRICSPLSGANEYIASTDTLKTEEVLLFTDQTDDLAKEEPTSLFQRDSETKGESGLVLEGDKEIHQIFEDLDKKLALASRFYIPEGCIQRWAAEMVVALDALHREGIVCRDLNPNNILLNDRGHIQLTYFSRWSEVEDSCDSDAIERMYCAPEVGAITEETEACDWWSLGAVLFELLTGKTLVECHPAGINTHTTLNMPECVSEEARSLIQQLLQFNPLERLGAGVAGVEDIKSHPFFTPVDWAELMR

[9] = biological target: protein kinases (human kinome) (Homo sapiens, UniProt P49841)
[10] = biological target: protein kinases (human kinome) (Homo sapiens, UniProt Q8NFU5); conditions: IPMK (Q8NFU5)
[11] = Experiment wp114, direction of change down

protein kinases (human kinome) (Homo sapiens, UniProt P50750), sequence (P50750 whole entry): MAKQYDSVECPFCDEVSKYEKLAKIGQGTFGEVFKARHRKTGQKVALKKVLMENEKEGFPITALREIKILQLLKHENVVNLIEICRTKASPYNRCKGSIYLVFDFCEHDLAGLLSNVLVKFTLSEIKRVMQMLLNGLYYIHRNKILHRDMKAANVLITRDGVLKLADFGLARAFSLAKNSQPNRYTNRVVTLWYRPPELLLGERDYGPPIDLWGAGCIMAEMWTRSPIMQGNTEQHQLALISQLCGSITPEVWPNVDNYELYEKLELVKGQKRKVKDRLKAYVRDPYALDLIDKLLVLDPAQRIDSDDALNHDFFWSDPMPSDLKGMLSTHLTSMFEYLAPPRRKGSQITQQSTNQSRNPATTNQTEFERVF
protein kinases (human kinome) (Homo sapiens, UniProt P49841), sequence (P49841 whole entry): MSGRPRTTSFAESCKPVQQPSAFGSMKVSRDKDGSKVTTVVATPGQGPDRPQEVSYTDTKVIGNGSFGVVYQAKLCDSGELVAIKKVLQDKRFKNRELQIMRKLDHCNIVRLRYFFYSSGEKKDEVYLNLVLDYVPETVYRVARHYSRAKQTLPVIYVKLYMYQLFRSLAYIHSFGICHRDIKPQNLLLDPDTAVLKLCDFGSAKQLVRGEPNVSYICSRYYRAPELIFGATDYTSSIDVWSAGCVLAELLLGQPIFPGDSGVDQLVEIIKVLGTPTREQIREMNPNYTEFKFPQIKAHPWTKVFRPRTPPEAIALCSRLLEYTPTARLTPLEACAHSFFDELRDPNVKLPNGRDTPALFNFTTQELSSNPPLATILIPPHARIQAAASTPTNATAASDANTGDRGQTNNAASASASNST
protein kinases (human kinome) (Homo sapiens, UniProt O75460), sequence (O75460 19-977): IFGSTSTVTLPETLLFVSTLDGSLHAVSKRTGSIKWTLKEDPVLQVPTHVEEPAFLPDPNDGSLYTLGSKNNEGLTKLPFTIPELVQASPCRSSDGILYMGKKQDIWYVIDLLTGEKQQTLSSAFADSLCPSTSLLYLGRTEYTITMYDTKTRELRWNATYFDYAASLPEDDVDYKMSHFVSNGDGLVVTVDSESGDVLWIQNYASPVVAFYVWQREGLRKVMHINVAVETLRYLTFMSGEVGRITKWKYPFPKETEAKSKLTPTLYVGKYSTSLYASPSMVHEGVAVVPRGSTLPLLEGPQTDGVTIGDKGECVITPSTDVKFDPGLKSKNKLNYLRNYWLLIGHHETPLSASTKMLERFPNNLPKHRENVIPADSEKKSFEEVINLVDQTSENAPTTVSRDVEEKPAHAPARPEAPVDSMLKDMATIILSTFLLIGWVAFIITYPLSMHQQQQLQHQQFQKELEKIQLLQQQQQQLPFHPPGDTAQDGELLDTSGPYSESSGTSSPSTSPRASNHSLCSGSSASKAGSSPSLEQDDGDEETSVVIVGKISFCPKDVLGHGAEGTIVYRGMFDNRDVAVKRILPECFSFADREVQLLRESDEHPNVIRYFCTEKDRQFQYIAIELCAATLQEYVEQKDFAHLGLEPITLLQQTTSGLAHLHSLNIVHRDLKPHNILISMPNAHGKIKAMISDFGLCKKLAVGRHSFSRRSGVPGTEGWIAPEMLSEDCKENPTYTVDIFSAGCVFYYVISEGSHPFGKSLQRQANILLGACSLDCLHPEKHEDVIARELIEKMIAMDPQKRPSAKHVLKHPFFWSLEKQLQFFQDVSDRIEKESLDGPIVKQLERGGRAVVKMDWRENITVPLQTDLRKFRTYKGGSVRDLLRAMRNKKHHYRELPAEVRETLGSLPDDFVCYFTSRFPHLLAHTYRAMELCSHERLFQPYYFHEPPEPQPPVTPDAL
protein kinases (human kinome) (Homo sapiens, UniProt P54753), sequence (P54753 34-998): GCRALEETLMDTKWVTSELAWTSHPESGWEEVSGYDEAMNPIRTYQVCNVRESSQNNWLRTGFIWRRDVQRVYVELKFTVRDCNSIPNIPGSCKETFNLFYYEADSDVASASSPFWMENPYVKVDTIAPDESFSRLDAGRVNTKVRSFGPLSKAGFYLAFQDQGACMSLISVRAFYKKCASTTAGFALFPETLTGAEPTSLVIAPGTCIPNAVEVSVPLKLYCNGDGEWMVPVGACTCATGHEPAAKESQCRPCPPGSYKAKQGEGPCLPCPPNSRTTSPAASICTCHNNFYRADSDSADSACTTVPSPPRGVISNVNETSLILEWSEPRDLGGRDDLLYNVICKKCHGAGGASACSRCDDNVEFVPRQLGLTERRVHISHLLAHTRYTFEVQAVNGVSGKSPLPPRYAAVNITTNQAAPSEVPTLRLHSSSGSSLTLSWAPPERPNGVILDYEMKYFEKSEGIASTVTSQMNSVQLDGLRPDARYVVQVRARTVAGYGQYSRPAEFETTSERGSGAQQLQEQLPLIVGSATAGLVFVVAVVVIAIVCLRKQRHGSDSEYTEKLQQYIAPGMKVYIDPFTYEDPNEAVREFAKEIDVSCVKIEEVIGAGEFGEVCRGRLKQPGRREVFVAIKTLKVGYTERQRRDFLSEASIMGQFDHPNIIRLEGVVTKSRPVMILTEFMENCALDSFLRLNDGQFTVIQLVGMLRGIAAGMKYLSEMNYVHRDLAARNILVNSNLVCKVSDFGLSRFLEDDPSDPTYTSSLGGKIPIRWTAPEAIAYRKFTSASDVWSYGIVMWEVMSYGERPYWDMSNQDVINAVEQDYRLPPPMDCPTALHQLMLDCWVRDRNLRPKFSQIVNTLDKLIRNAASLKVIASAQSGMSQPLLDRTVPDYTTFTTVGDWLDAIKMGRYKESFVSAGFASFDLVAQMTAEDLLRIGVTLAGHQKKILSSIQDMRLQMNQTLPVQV
protein kinases (human kinome) (Homo sapiens, UniProt Q8NFU5), sequence (Q8NFU5 whole entry): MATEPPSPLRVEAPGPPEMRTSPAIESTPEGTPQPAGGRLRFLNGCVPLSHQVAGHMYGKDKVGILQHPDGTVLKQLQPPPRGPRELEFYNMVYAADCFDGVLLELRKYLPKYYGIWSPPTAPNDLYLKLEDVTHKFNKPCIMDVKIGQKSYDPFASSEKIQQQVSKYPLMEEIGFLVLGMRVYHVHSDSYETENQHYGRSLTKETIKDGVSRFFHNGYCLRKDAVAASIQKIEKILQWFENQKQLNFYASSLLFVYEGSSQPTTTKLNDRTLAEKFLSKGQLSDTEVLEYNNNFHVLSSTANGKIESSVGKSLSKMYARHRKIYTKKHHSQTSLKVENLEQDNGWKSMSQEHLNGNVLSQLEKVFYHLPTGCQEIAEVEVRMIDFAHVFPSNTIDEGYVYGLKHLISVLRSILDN
protein kinases (human kinome) (Homo sapiens, UniProt Q6P5Z2), sequence (Q6P5Z2 whole entry): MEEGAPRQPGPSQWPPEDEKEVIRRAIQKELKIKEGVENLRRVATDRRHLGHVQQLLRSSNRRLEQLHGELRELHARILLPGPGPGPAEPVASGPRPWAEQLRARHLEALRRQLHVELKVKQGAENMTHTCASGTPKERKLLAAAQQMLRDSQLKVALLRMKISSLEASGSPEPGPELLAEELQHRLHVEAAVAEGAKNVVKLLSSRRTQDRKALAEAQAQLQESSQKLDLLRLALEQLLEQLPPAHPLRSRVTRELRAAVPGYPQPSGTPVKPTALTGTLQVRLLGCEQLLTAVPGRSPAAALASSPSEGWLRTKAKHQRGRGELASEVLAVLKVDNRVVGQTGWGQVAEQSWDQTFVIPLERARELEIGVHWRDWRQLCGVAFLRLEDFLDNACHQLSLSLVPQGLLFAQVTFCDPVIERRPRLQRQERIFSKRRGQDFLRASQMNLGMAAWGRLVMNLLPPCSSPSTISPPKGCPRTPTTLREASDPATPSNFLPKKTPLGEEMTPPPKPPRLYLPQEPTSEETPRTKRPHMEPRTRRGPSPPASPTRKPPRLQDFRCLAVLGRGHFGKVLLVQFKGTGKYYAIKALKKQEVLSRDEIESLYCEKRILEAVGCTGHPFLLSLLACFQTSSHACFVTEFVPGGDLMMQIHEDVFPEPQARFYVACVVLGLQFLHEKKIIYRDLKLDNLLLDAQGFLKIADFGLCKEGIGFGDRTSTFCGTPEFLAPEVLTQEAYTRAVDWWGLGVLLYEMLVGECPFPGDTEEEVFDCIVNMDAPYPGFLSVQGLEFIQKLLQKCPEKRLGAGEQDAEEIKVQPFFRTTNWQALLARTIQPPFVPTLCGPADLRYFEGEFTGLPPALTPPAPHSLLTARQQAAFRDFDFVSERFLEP
protein kinases (human kinome) (Homo sapiens, UniProt Q96RU7), sequence (Q96RU7 whole entry): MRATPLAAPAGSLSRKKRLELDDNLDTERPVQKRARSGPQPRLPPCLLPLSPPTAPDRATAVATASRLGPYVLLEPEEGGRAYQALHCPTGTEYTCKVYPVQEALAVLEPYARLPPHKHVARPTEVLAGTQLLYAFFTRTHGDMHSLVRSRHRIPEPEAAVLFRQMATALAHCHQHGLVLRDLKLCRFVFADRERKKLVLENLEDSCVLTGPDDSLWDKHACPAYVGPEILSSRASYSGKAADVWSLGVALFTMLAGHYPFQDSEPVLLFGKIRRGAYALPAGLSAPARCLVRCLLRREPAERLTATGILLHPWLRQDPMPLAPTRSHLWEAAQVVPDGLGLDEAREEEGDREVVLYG
protein kinases (human kinome) (Homo sapiens, UniProt Q16877), sequence (Q16877 whole entry): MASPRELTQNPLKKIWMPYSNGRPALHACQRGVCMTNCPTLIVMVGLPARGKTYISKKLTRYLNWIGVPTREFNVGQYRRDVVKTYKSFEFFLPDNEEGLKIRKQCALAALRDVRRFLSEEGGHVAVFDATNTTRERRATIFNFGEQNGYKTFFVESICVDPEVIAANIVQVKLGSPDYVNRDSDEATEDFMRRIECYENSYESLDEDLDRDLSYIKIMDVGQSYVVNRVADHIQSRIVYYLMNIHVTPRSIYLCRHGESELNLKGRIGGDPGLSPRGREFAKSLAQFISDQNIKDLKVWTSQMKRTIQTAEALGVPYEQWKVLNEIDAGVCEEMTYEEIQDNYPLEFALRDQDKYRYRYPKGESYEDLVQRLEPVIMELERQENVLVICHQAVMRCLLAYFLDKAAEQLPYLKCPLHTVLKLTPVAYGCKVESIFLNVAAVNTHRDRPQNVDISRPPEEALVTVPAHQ

## Cc1ccc(NC(=O)c2cccc(C(F)(F)F)c2)cc1N1Cc2cnc(Nc3ccc(N4CCN(Cc5cn(CCCCCOc6cccc7c6C(=O)N(C6CCC(=O)NC6=O)C7=O)nn5)CC4)nc3)nc2N(C)C1=O (stereo not drawn) [DB0646, N-(3-(7-((6-(4-((1-(5-((2-(2,6-Dioxopiperidin-3-yl)-1,3-dioxoisoindolin-4-yl)oxy)pentyl)-1H-1,2,3-triazol-4-yl)methyl)piperazin-1-v)pyridin-3-yl)amino)-1-methyl-2-oxo-1,4-dihydropyrimido[4,5-d]pyrimidin-3(2H)-yl)-4-methylphenyl)-3-(trifluoromethyl)benzamide]
[1]; Experiment wp105
  logFC MAPK12 (P53778): −0.5939
[1]; experiment wp105
  logFC: −0.5939
[1]; experiment wp172
  logFC: −1.457
  logFC MAPK12 (P53778): −1.457
[2]; [11]
  logFC EPHB3 (P54753): −0.4175
[2]; protein EPHB3 (P54753), experiment wp114, down
  logFC EPHB3: −0.4175

## Cc1ncsc1-c1ccc([C@H](C)NC(=O)[C@@H]2C[C@@H](O)CN2C(=O)[C@@H](NC(=O)CCOCCOCCN2CCN(c3ccc(Nc4ncc(Cl)c(Nc5ccccc5S(=O)(=O)C(C)C)n4)cc3)CC2)C(C)(C)C)cc1 [FMF.06.098.1]
[3]; [11]
  logFC PKN3 (Q6P5Z2): −0.451
[3]; protein PKN3 (Q6P5Z2), experiment wp114, down
  logFC PKN3: −0.451

## O=C1CCC(N2C(=O)c3cccc(NCCCCCCCCN4CCC(NC(=O)c5[nH]ncc5NC(=O)c5c(Cl)cccc5Cl)CC4)c3C2=O)C(=O)N1 (stereo not drawn) [MFH.5.126.1]
[4]
  logFC of ERN1 (O75460): −0.4882
[4]; protein ERN1 (O75460), down
  logFC ERN1: −0.4882

## Cc1ncsc1-c1ccc([C@H](C)NC(=O)[C@@H]2C[C@@H](O)CN2C(=O)[C@@H](NC(=O)CCCCCN2CCN(c3ccc(Nc4ncc5scc(-c6cccc(NS(C)(=O)=O)c6)c5n4)cc3)CC2)C(C)(C)C)cc1 [RSS0680, (2S,4R)-1-((S)-3,3-Dimethyl-2-(6-(4-(4-((7-(3-(methylsulfonamido)phenyl)thieno[3,2-d]pyrimidin-2-yl)amino)phenyl)piperazin-1-yl)hexanamido)butanoyl)-4-hydroxy-N—((S)-1-(4-(4-methylthiazol-5yl)phenyl)ethyl)pyrrolidine-2-carboxamide]
[5]
  logFC: −0.3389

## CC(C)S(=O)(=O)c1ccccc1Nc1nc(Nc2ccc(N3CCN(CCOCCNC(=O)CNc4cccc5c4C(=O)N(C4CCC(=O)NC4=O)C5=O)CC3)cc2)ncc1Cl (stereo not drawn) [SK.3.91]
[6]; [11]
  logFC TRIB3 (Q96RU7): −1.211
[6]; protein TRIB3 (Q96RU7), experiment wp114, down
  logFC TRIB3: −1.211
[7]; Experiment wp160, 2 hr
  logFC CDK9 (P50750): −0.404
  logFC of CDK9 (P50750): −0.404
[7]; Experiment wp172
  logFC CDK9 (P50750): −1.423
  logFC of CDK9 (P50750): −1.423
[7]; experiment wp160, 4 hr
  logFC CDK9 (P50750): −1.068
  logFC of CDK9 (P50750): −1.068
[8]; Experiment wp105
  logFC RPS6KC1 (Q96S38): −0.3327
[8]; experiment wp105
  logFC: −0.3327
[8]; experiment wp107
  logFC: −0.3623
  logFC RPS6KC1 (Q96S38): −0.3623

## Nc1ncc(-c2ccc(S(=O)(=O)N(CCCNC(=O)CCOCCOCCOCCOCCOCCNc3cccc4c3C(=O)N(C3CCC(=O)NC3=O)C4=O)C3CC3)cc2)cc1-c1ccc2c(c1)CCNC2=O (stereo not drawn) [WH.10417.099]
[9]; Accession P49841-1, experiment wp172, direction down
  logFC GSK3B: −0.8298
[9]; Experiment wp172
  logFC of GSK3B (P49841-1): −0.8298
[10]; experiment wp056
  logFC: −0.5845
[10]; experiment wp107
  logFC: −0.4154
